# Where two headings read alike, the source gives them in different places.
# Legend:
# NIH3T3 = assay: MTT assay, NIH3T3 non-cancer cell line; assay type: cell-based; conditions: read-out: IC50 NIH3T3
# EBC-1 = assay: MTT antiproliferative assay, EBC-1; assay type: cell-based, human; conditions: read-out: IC50 EBC-1
# MCF-7 = assay: MTT antiproliferative assay, MCF-7; assay type: cell-based, human; conditions: read-out: IC50 MCF-7
# HT-29 = assay: MTT antiproliferative assay, HT-29; assay type: cell-based, human; conditions: read-out: IC50 HT-29
# Mia-Paca-2 = assay: MTT antiproliferative assay, Mia-Paca-2; assay type: cell-based, human; conditions: read-out: IC50 Mia-Paca-2
# AsPC-1 = assay: MTT antiproliferative assay, AsPC-1; assay type: cell-based, human; conditions: read-out: IC50 AsPC-1
# [1] = MTT, 72 h, mean ± S.E.M. of 3–5 experiments
SMILES,"IC50 (MCF-7; Homo sapiens, MCF7, 72 h) [µM]","IC50 (HT-29; Homo sapiens, HT-29, 72 h) [µM]","IC50 (Mia-Paca-2; Homo sapiens, MIA PaCa-2, 72 h) [µM]","IC50 (AsPC-1; Homo sapiens, ASPC1, 72 h) [µM]","IC50 (NIH3T3; Mus musculus, NIH3T3, 72 h) [µM]","IC50 (EBC-1; Homo sapiens, EBC-1, 72 h) [µM]","IC50 (NIH3T3; MTT, 72 h, non-cancer cell line, mean ± S.E.M.) [µM]",IC50 (EBC-1; [1]) [µM],IC50 (MCF-7; [1]) [µM],IC50 (HT-29; [1]) [µM],IC50 (Mia-Paca-2; [1]) [µM],IC50 (AsPC-1; [1]) [µM]
"COc1cc2nccc(Oc3ccc(NC(=O)C4(C(=O)Nc5ccc(F)cc5)CC4)cc3)c2cc1OC [Cabozantinib, reference compound]",17.8 ± 2.4,3.7 ± 0.4,7.4 ± 0.6,21.3 ± 2.03,,0.06 ± 0.01,,,,,,
"COc1cccc2c1C(=O)c1c(O)c3c(c(O)c1C2=O)C[C@@](O)(C(=O)CO)C[C@@H]3O[C@H]1C[C@H](N)[C@H](O)[C@H](C)O1 [Doxorubicin, reference compound]",0.137 ± 0.0063,0.6 ± 0.2,0.0881 ± 0.0526,1.73 ± 0.2,0.013 ± 0.0021,0.5 ± 0.1,,,,,,
"O=C1C=C(Nc2ccc(OCc3cn(Cc4cccc(Cl)c4)nn3)cc2)C(=O)c2ccccc21 [Compound 4f, 2-((4-((1-(3-Chlorobenzyl)−1H-1,2,3-triazol-4-yl)methoxy)phenyl)amino) naphthalene-1,4-dione]",> 100,1.9 ± 0.4,42.1 ± 12.6,10.5 ± 2.6,29.8 ± 7.3,2.3 ± 0.4,,,,,,
"N.N.[Cl][Pt][Cl] [Cisplatin, reference compound]",,,,,,,8.3 ± 1.4,24 ± 5.5,43.1 ± 1.9,43.3 ± 17.3,22.1 ± 6.2,5.4 ± 0.6

# Continued, in another order:
"IC50 (MCF-7; Homo sapiens, MCF7, 72 h) [µM]","IC50 (HT-29; Homo sapiens, HT-29, 72 h) [µM]","IC50 (Mia-Paca-2; Homo sapiens, MIA PaCa-2, 72 h) [µM]","IC50 (AsPC-1; Homo sapiens, ASPC1, 72 h) [µM]",SMILES,"IC50 (NIH3T3; Mus musculus, NIH3T3, 72 h) [µM]","IC50 (EBC-1; Homo sapiens, EBC-1, 72 h) [µM]","IC50 (NIH3T3; MTT, 72 h, non-cancer cell line, mean ± S.E.M.) [µM]",IC50 (EBC-1; [1]) [µM],IC50 (MCF-7; [1]) [µM],IC50 (HT-29; [1]) [µM],IC50 (Mia-Paca-2; [1]) [µM],IC50 (AsPC-1; [1]) [µM]
15.9 ± 4.6,3.1 ± 0.4,21.3 ± 3.6,20.8 ± 6.8,"O=C1C=C(Nc2ccc(OCc3cn(Cc4ccc(Cl)cc4)nn3)cc2)C(=O)c2ccccc21 [Compound 4d, 2-((4-((1-(4-Chlorobenzyl)−1H-1,2,3-triazol-4-yl)methoxy)phenyl)amino) naphthalene-1,4-dione]",14.4 ± 1.9,1.9 ± 0.3,,,,,,
20.3 ± 0.2,2.5 ± 0.7,31.3 ± 3.3,16.2 ± 2,"CC(C)(C)c1ccc(Cn2cc(COc3ccc(NC4=CC(=O)c5ccccc5C4=O)cc3)nn2)cc1 [Compound 4 h, 2-((4-((1-(4-(Tert-butyl)benzyl)−1H-1,2,3-triazol-4yl)methoxy)phenyl)amino) naphthalene-1,4-dione]",46.7 ± 3.2,8.7 ± 1.3,,,,,,
26.9 ± 0.2,> 100,61 ± 6.6,34.8 ± 15.3,"O=C1C=C(Nc2ccc(OCc3cn(Cc4ccc(F)cc4)nn3)cc2)C(=O)c2ccccc21 [Compound 4c, 2-((4-((1-(4-Fluorobenzyl)−1H-1,2,3-triazol-4-yl)methoxy)phenyl)amino) naphthalene-1,4-dione]",20.1 ± 3.3,13.7 ± 3.3,,,,,,
